From patent publication US20130183266A1, “COMPOUNDS AND METHODS FOR THE TREATMENT OR PREVENTION OF FLAVIVIRUS INFECTIONS” (Vertex Pharmaceuticals Incorporated, priority 2010, published 2013)

Experiments:
[1] = tested on: HCV replicon (genotype 1b) in Huh7 hepatoma cell line ET; experiment: microbe, parasite or virus in culture; assay type: cell-based; conditions: Hepatitis C virus, Huh-7, 96 h, read-out: HCV-Replicon-1b- IC50
[2] = tested on: HCV sub-genomic replicon of genotype 1a in replicon cell line W11.8; experiment: microbe, parasite or virus in culture; assay type: cell-based; conditions: Hepatitis C virus, W11.8, 96 h, read-out: HCV-Replicon-ELISA-1a-IC50

SMILES | IC50 [1] [µM] | IC50 [2] [µM]
[2H]c1c([2H])c([2H])c(-c2cc(N(C(=O)C3CCC(C)CC3)[C@H]3CC[C@H](O)CC3)c(C(=O)O)s2)c([2H])c1[2H] (stereo partly drawn) [Compound 1, 3-[(trans-4-Hydroxy-cyclohexyl)-(trans-4-methylcyclohexanecarbonyl)-amino]-5-d5-phenyl-thiophene-2-carboxylic acid] | 0.1 to 1 | 
[2H][C@]1(O)CC[C@H](N(C(=O)C2CCC(C)CC2)c2cc(C#CC(C)(C)C)sc2C(=O)O)CC1 (stereo partly shown) [Compound 3] | < 0.1 | < 0.1
[2H][C@]1(O)CC[C@H](N(C(=O)C2CCC(C)CC2)c2cc(-c3ccccc3)sc2C(=O)O)CC1 (stereo partly shown) [Compound 4] | 0.1 to 1 | 
